This passage reports inhibition results from patent US10266497B2 (ABIDE THERAPEUTICS, INC., priority 2017, dated 2019).

The first assay addresses T1, MAGL (Homo sapiens, UniProt Q99685).
T1 sequence (Q99685 1-303): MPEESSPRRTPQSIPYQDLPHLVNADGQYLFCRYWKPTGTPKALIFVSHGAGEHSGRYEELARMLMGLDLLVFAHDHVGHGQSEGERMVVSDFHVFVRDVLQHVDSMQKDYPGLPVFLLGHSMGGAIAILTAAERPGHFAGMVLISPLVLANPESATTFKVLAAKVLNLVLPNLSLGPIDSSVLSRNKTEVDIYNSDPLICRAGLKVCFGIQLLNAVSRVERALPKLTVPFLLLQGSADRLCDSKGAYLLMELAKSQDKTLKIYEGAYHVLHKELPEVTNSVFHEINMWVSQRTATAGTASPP
As to the kind of experiment: In vitro competitive activity-based protein profiling, MAGL, human. The note with it: read-out: MAGL % inh. 1 μM (human).
In the case of `O=C(O)c1ccn(C(=O)N2CCC(OCc3cc(N4CCCC4)cc(C(F)(F)F)c3)CC2)n1` [Example 331, 1-(4-((3-(pyrrolidin-1-yl)-5-(trifluoromethyl)benzyl)oxy)piper-idine-1-carbonyl)-1H-pyrazole-3-carboxylic acid], the inhibition at 1 µM is above 75%.

The assay is the same for the next values; noted with them: read-out: MAGL % inh. (human) at 10 uM.
As to `O=C(O)c1ccn(C(=O)N2C[C@H]3C[C@H](OCc4cccc(-c5cscn5)c4Cl)C[C@H]3C2)n1` [Example 447, 1-(trans-5-((2-chloro-3-(thiazol-4-yl)benzyl)oxy)octa-hydrocyclopenta[c]pyrrole-2-carbonyl)-1H-pyrazole-3-carboxylic acid], the inhibition at 10 µM was above 75%. Same read-out and setting: next, `O=C(O)c1ccn(C(=O)N2C[C@H]3C[C@H](NCc4cccc(-c5ccccc5)c4)C[C@H]3C2)n1` [Example 273, 1-(trans-5-(([1,1′-biphenyl]-3-ylmethyl)amino)octahydrocyclopenta [c]pyrrole-2-carbonyl)-1H-pyrazole-3-carboxylic acid]: above 75%.

Another assay addresses T2, MAGL (Mus musculus, UniProt O35678).
T2 sequence (O35678 1-303): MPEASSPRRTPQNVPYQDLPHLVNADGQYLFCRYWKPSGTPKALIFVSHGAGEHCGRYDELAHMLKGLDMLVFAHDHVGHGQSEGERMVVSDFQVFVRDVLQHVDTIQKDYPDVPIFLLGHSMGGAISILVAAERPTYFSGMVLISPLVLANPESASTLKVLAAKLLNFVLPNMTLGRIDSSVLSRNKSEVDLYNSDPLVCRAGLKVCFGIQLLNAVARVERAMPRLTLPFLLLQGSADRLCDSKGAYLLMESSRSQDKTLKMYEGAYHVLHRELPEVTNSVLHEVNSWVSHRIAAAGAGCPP
As to the kind of experiment: In vitro competitive activity-based protein profiling, MAGL, mouse. Particulars: read-out: MAGL % inh. 1 μM (mouse).
For `O=C(O)c1ccn(C(=O)N2CCC(OCc3cc(N4CCCC4)cc(C(F)(F)F)c3)CC2)n1` [Example 331, 1-(4-((3-(pyrrolidin-1-yl)-5-(trifluoromethyl)benzyl)oxy)piper-idine-1-carbonyl)-1H-pyrazole-3-carboxylic acid], the inhibition at 1 µM is above 75%. The same measure, in the same setting: with `CNC(=O)c1ccn(C(=O)N2CC3CN(Cc4cccc(C(F)(F)F)c4)CC3C2)n1` (stereo not shown) [Example 432, N-methyl-1-(5-(3-(trifluoromethyl)benzyl)octahydro-pyrrolo[3,4-c]pyrrole-2-carbonyl)-1H-pyrazole-3-carboxamide] the figure was above 75%. `NC(=O)c1ccn(C(=O)N2CCC3(CCN(Cc4ccc(N5CCOCC5)cc4C(F)(F)F)C3)C2)n1` (stereo not shown) [Example 436, 1-(7-(4-morpholino-2-(trifluoromethyl)benzyl)-2,7-diazaspiro[4.4]non-ane-2-carbonyl)-1H-pyrazole-3-carboxamide]: the inhibition at 1 µM is above 75%. On the same count and under the same terms, with `Cc1cc(CN2CCCC23CCN(C(=O)n2ccc(C(=O)O)n2)CC3)cc(C(F)(F)F)c1` [Example 303, 1-(1-(3-methyl-5-(trifluoromethyl)benzyl)-1,8-diazaspiro[4.5]decane-8-carbonyl)-1H-pyrazole-3-carboxylic acid] the figure was above 75%; with `CNC(=O)c1ccn(C(=O)N2C[C@H]3C[C@@H](N(C)Cc4ccc(C(F)(F)F)cc4)C[C@H]3C2)n1` [Example 439, N-methyl-1-(cis-5-(methyl(4-(trifluoromethyl)benzyl)amino)octa-hydrocyclopenta[c]pyrrole-2-carbonyl)-1H-pyrazole-3-carboxamide], above 75%. The same measure, in the same setting: with `CNC(=O)c1ccn(C(=O)N2CCC3(CCN(Cc4cc(Cl)ccc4Cl)C3)C2)n1` (stereo not shown) [Example 428, 1-(7-(2,5-dichlorobenzyl)-2,7-diazaspiro[4.4]non-ane-2-carbonyl)-N-methyl-1H-pyrazole-3-carboxamide] the figure was above 75%; with `O=C(O)c1ccn(C(=O)N2C[C@H]3C[C@H](Oc4cccc(-c5cscn5)c4Cl)C[C@H]3C2)n1` [Example 446, 1-(trans-5-(2-chloro-3-(thiazol-4-yl)phenoxy)octa-hydrocyclopenta[c]pyrrole-2-carbonyl)-1H-pyrazole-3-carboxylic acid], above 75%. The same measure, in the same setting: next, `Cc1cn(C(=O)N2CCN(Cc3cccc(Oc4ccc(Cl)cc4)c3)C[C@@H]2C)nc1C(=O)O` [Example 442, (S)-1-(4-(3-(4-chlorophenoxy)benzyl)-2-methylpiperazine-1-carbonyl)-4-methyl-1H-pyrazole-3-carboxylic acid]: above 75%; `CNC(=O)c1ccn(C(=O)N2CC3CN(Cc4ccc(C(F)(F)F)cc4)CC3C2)n1` (stereo not shown) [Example 425, N-methyl-1-(5-(4-(trifluoromethyl)benzyl)octahydro-pyrrolo[3,4-c]pyrrole-2-carbonyl)-1H-pyrazole-3-carboxamide]: above 75%; `CNC(=O)c1ccn(C(=O)N2CC3CN(Cc4cc(Cl)ccc4Cl)CC3C2)n1` (stereo not shown) [Example 430, 1-(5-(2,5-dichlorobenzyl)octa-hydropyrrolo[3,4-c]pyrrole-2-carbonyl)-N-methyl-1H-pyrazole-3-carboxamide]: above 75%. In the case of `NC(=O)c1ccn(C(=O)N2CCN(Cc3cccc(C4(O)CCOCC4)c3)CC2)n1` [Example 237, 1-(4-(3-(4-hydroxytetrahydro-2H-pyran-4-yl)benzyl)piperazine-1-carbonyl)-1H-pyrazole-3-carboxamide], the inhibition at 1 µM was above 75%. Take `O=C(O)c1nn(C(=O)N2CCN(Cc3cccc(C(F)(F)F)c3N3CCOCC3)CC2)cc1Cl` [Example 449, 4-chloro-1-(4-(2-morpholino-3-(trifluoromethyl)benzyl)piperazine-1-carbonyl)-1H-pyrazole-3-carboxylic acid]: the inhibition at 1 µM is above 75%. Same read-out and setting: with `NC(=O)c1ccn(C(=O)N2CCC3(CCN(Cc4cccc(C(F)(F)F)c4)C3)C2)n1` (stereo not shown) [Example 429, 1-(7-(3-(trifluoromethyl)benzyl)-2,7-diazaspiro[4.4]non-ane-2-carbonyl)-1H-pyrazole-3-carboxamide] the figure was above 75%. The same measure, in the same setting: next, `C[C@H]1CC(N(C)Cc2ccc(C(F)(F)F)cc2N2CCCC2)CCN1C(=O)n1cc(Cl)c(C(=O)O)n1` (stereo partly drawn) [Example 33, 4-Chloro-1-((2S)-2-methyl-4-(methyl(2-(pyrrolidin-1-yl)-4-(trifluoromethyl)benzyl)amino)piperidine-1-carbonyl)-1H-pyrazole-3-carboxylic Acid]: 50 to 75%; `CNC(=O)c1ccn(C(=O)N2CCC3(CCN(Cc4cc(Cl)cc(C(F)(F)F)c4)C3)C2)n1` (stereo not shown) [Example 435, 1-(7-(3-chloro-5-(trifluoromethyl)benzyl)-2,7-diazaspiro[4.4]non-ane-2-carbonyl)-N-methyl-1H-pyrazole-3-carboxamide]: above 75%; `NC(=O)c1ccn(C(=O)N2CCC3(CCN(Cc4ccc(Cl)cc4)C3)C2)n1` (stereo not shown) [Example 421, 1-(7-(4-chlorobenzyl)-2,7-diazaspiro[4.4]non-ane-2-carbonyl)-1H-pyrazole-3-carboxamide]: above 75%. On the same count and under the same terms, next, `CNC(=O)c1ccn(C(=O)N2CCN(Cc3cccc(Oc4ccccc4)c3)CC2)n1` [Example 423, N-methyl-1-(4-(3-phenoxybenzyl)piperazine-1-carbonyl)-1H-pyrazole-3-carboxamide]: above 75%; `CC(C)COc1cccc(O[C@H]2C[C@@H]3CN(C(=O)n4ccc(C(=O)O)n4)C[C@@H]3C2)c1Cl` [Example 448, 1-(trans-5-(2-chloro-3-isobutoxyphenoxy)octahydrocyclopenta [c]pyrrole-2-carbonyl)-1H-pyrazole-3-carboxylic acid]: above 75%.

In the case of `COc1cccc(O[C@H]2C[C@@H]3CN(C(=O)n4ccc(C(=O)O)n4)C[C@@H]3C2)c1Cl` [Example 445, 1-(trans-5-(2-chloro-3-methoxyphenoxy)octahydrocyclopenta [c]pyrrole-2-carbonyl)-1H-pyrazole-3-carboxylic acid], the inhibition at 1 µM is above 75%. The same measure, in the same setting: next, `O=C(O)c1ccn(C(=O)N2CCC3(CCCN3Cc3cc(Cl)cc(N4CCCC4)c3)CC2)n1` [Example 344, 1-(1-(3-chloro-5-(pyrrolidin-1-yl)benzyl)-1,8-diazaspiro[4.5]decane-8-carbonyl)-1H-pyrazole-3-carboxylic acid]: above 75%. Take `O=C(O)c1nn(C(=O)N2CCN(Cc3ccc(C(F)(F)F)cc3N3CCCC3)CC2)cc1Cl` [Example 443, 4-chloro-1-(4-(2-(pyrrolidin-1-yl)-4-(trifluoromethyl)benzyl)piperazine-1-carbonyl)-1H-pyrazole-3-carboxylic acid]: the inhibition at 1 µM is above 75%. On the same count and under the same terms, with `CNC(=O)c1ccn(C(=O)N2C[C@H]3C[C@@H](N(C)Cc4ccccc4C(F)(F)F)C[C@H]3C2)n1` [Example 434, N-methyl-1-(cis-5-(methyl(2-(trifluoromethyl)benzyl)amino)octa-hydrocyclopenta[c]pyrrole-2-carbonyl)-1H-pyrazole-3-carboxamide] the figure was above 75%; with `CNC(=O)c1ccn(C(=O)N2CC3CN(Cc4cc(Cl)cc(C(F)(F)F)c4)CC3C2)n1` (stereo not shown) [Example 437, 1-(5-(3-chloro-5-(trifluoromethyl)benzyl)octahydro-pyrrolo[3,4-c]pyrrole-2-carbonyl)-N-methyl-1H-pyrazole-3-carboxamide], above 75%; with `CNC(=O)c1ccn(C(=O)N2CCN(Cc3ccc(Cl)cc3)CC2)n1` [Example 420, 1-(4-(4-chlorobenzyl)piper-azine-1-carbonyl)-N-methyl-1H-pyrazole-3-carboxamide], above 75%. Same read-out and setting: next, `CNC(=O)c1ccn(C(=O)N2CC3CN(Cc4ccc(N5CCOCC5)cc4C(F)(F)F)CC3C2)n1` (stereo not shown) [Example 440, N-methyl-1-(5-(4-morpholino-2-(trifluoromethyl)benzyl)octahydro-pyrrolo[3,4-c]pyrrole-2-carbonyl)-1H-pyrazole-3-carboxamide]: above 75%.
